Reference: patent US12507703B2, “Methods, devices and compositions for preserving human milk” (The Trustees of Princeton University, priority 2023, dated 2025)
“And” between values parts separate entries of the source, which are not always exact repeats. Identical values can stand only once. Counter-ions that a name gives are not always drawn.

These molecules were tested on lipase (assay: Lipase/lipolysis assay (EnzChek Lipase Substrate, quenched BODIPY-fatty acid conjugate) on stored human milk; also: test concentration or dose not given here).

Compound	Lipase (RFU)
CC(=O)OC[C@H]1O[C@@H](O[C@@H]2[C@@H](O)[C@H](O[C@@H]3[C@H](O)C(C)(C)C[C@H]4C5=CC[C@@H]6[C@@]7(C)CC[C@H](O[C@@H]8O[C@H](C(=O)O)[C@@H](O)[C@H](O)[C@H]8O[C@@H]8O[C@H](CO)[C@H](O)[C@H](O)[C@H]8O[C@@H]8O[C@H](CO)[C@@H](O)[C@H](O)[C@H]8O)[C@](C)(CO)[C@@H]7CC[C@@]6(C)[C@]5(C)CC[C@@]34C)OC[C@@H]2O)[C@H](OC(C)=O)[C@@H](OC(C)=O)[C@@H]1OC(C)=O [Soyasaponin Ab]	976.6301 RFU
COc1cc2ccc(=O)oc2c2ccoc12 [Sphondin]	913.6372 RFU
C[N+]1(C)CCC[C@H]1C(=O)[O-].Cl [Stachydrine hydrochloride]	915.6673 RFU
C[N+]1(C)CCC[C@H]1C(=O)[O-] [Stachydrine]	1061.585 RFU
O.O.O.O.OC[C@H]1O[C@H](OC[C@H]2O[C@H](OC[C@H]3O[C@H](O[C@]4(CO)O[C@H](CO)[C@@H](O)[C@@H]4O)[C@H](O)[C@@H](O)[C@@H]3O)[C@H](O)[C@@H](O)[C@H]2O)[C@H](O)[C@@H](O)[C@H]1O [Stachyose (tetrahydrate)]	648.6527 RFU
OC[C@H]1O[C@H](OC[C@H]2O[C@H](OC[C@H]3O[C@H](O[C@]4(CO)O[C@H](CO)[C@@H](O)[C@@H]4O)[C@H](O)[C@@H](O)[C@@H]3O)[C@H](O)[C@@H](O)[C@H]2O)[C@H](O)[C@@H](O)[C@H]1O [Stachyose]	882.4617 RFU
CCCCCCCCCCCCCCCCCC(=O)O[C@H](CC(=O)[O-])C[N+](C)(C)C [Stearoylcarnitine]	900.7392 RFU
C=C1C[C@@]23CC[C@H]4[C@@](C)(CCC[C@@]4(C)C(=O)O)[C@@H]2CC[C@]1(O[C@@H]1O[C@H](CO)[C@@H](O)[C@H](O)[C@H]1O[C@@H]1O[C@H](CO)[C@@H](O)[C@H](O)[C@H]1O)C3 [Steviolbioside]	1061.907 RFU
COc1cc2oc(=O)ccc2cc1CC=C(C)C [Suberosin]	1003.25 RFU
CC1(C)[C@H](C(=O)[O-])N2C(=O)C[C@H]2S1(=O)=O.[Na+] [Sulbactam (sodium)]	1191.707 RFU
CC1(C)[C@H](C(=O)O)N2C(=O)C[C@H]2S1(=O)=O [Sulbactam]	759.2536 RFU
CC(=O)CCC=C(C)C [Sulcatone]	1082.02 RFU
O=S(=O)([O-])c1ccc(N=Nc2c(O)ccc3cc(S(=O)(=O)[O-])ccc23)cc1.[Na+].[Na+] [Sunset Yellow FCF]	868.5434 RFU
COc1cc(C=O)cc(OC)c1O [Syringaldehyde]	938.0511 RFU and 949.8732 RFU
COc1cc(/C=C/CO)cc(OC)c1O[C@@H]1O[C@H](CO)[C@@H](O)[C@H](O)[C@H]1O [Syringin]	935.9617 RFU
C[n+]1cccc(C(N)=O)c1 [TRIA-662]	1140.39 RFU
COc1ccc(-c2cc(=O)c3c(OC)c(OC)c(OC)c(OC)c3o2)cc1 [Tangeritin]	1254.653 RFU
C=C1CC[C@]2(C)CC[C@]3(C)[C@H](CC[C@@H]4[C@@]5(C)CC[C@H](O)C(C)(C)[C@@H]5CC[C@]43C)[C@H]2[C@@H]1C [Taraxasterol]	974.5848 RFU
C[C@H](CCC(=O)NCCS(=O)(=O)[O-])[C@H]1CC[C@H]2[C@@H]3[C@H](O)C[C@@H]4C[C@H](O)CC[C@]4(C)[C@H]3CC[C@]12C.[Na+] [Taurochenodeoxycholic acid (sodium)]	1047.423 RFU
C[C@H](CCC(=O)NCCS(=O)(=O)O)[C@H]1CC[C@H]2[C@@H]3[C@H](O)C[C@@H]4C[C@H](O)CC[C@]4(C)[C@H]3C[C@H](O)[C@]12C [Taurocholic Acid]	1299.592 RFU and 949.1523 RFU and 900.9931 RFU
C[C@H](CCC(=O)NCCS(=O)(=O)O)[C@H]1CC[C@H]2[C@@H]3[C@H](O)C[C@@H]4C[C@H](O)CC[C@]4(C)[C@H]3C[C@H](O)[C@]12C [Taurocholic acid (sodium salt hydrate)]	1148.675 RFU
